For data set [1] the following is noted: in vivo; cited from earlier work.
The conditions of data set [2]: cited from earlier work.
The subject of data set [3] is small-cell lung cancer xenograft. The settings on record: oral administration, alone; cited from earlier work.
In another data set the test system is SCLC H146 cell line. The conditions noted are these: read-out: IC50 against SCLC H146 cell line; cited from earlier work.
In a further data set the target is Bcl-w (Homo sapiens (Human), UniProt Q92843). The conditions noted are these: cited from earlier work.
Data set [4] has as its system acute lymphoblastic leukemia xenograft. The conditions noted are these: oral administration, alone; cited from earlier work.
Another data set deals with circulating platelets. The settings on record: clinical trial, single agent; cited from earlier work.
The next data set has as its system H345 xenograft. The settings on record: 100 mg/kg/day, H345 xenograft model; cited from earlier work.
Another data set relates to RS4; 11 xenografts. The settings on record: single dose of 100 mg/kg; cited from earlier work.
Another data set deals with Mcl-1 (Homo sapiens (Human), UniProt Q07820). The conditions noted are these: cited from earlier work.
A further data set concerns CLL. The settings on record: average, read-out: average EC50, apoptosis in CLL; cited from earlier work.
For a further data set, the system named is RS4;11 cells. The conditions noted are these: cited from earlier work.
The target in a further data set is BCL-2 (Homo sapiens (Human), UniProt P10415). The data set can be described thus: BCL-2 competition binding (fluorescence polarization) assay. The conditions noted are these: read-out: BCL2 IC50. As for the experimental part: Biological Example 1: BCL-2 Competition Binding (Fluorescence Polarization) Assay
The fluorescence-labeled 23 amino acid peptide BH3 was purchased from CalBiochem ([…]). […] This binding assay was performed in 96-well plate and with each assay contained 15 and 30 nM of labeled peptide and purified BCL-2 protein (purchased from R&D Systems, Inc). The assay buffer contained 20 mM Hepes (pH 7.0), 50 mM KCl, 5 mM MgCl2, 20 mM Na2MoO4, 0.1 mg/ml Bovine Gamma Globulin and 0.01% NP40. Compounds were diluted in DMSO and added to the final assay with concentration range from 20 μM to 2 nM. The polarization degree (mP) value was determined by BioTek Synergy II with background subtraction after 3 hours of incubation at room temperature. IC50 was calculated using Prism software with sigmoidal dose-response curve fitting. ABT-737 was used as reference compound. Such assays, carried out with a range of doses of test compounds, allowed the determination of an approximate IC50 value.
On the technique in general: Polarisation of emitted light reports the rotation of a fluorescent probe.

The test system of data set [5] is BCL-2-dependent acute lymphoblastic leukemia (ALL) cell line RS4;11. In words: In vitro anti-proliferation assay (ATPlite luminescence) in RS4;11. It counts as cell-based. The conditions noted are these: RS4;11 cells, about 72 hours, medium with 5% FBS or 10% normal human serum. As to the method: Cell antiproliferation was assayed by PerkinElmer ATPlite™ Luminescence Assay System. Briefly, the various test cancer cell lines were plated at a density of about 1×10^4 cells per well in Costar 96-well plates, and were incubated with different concentrations of compounds for about 72 hours in medium supplemented with 5% FBS or 10% normal human serum (NHS). One lyophilized substrate solution vial was then reconstituted by adding 5 mL of substrate buffer solution, and was agitated gently until the solution was homogeneous. About 50 μL of mammalian cell lysis solution was added to 100 μL of cell suspension per well of a microplate, and the plate was shaken for about five minutes in an orbital shaker at 700 rpm. This procedure was used to lyse the cells and to stabilize the ATP. Next, 50 μL substrate solution was added to the wells and microplate was shaken for five minutes in an orbital shaker at 700 rpm. Finally, the luminescence was measured by a PerkinElmer TopCount® Microplate Scintillation Counter. Such assays, carried out with a range of doses of test compounds, allowed the determination of the cellular anti-antiproliferative IC50 of the compounds of the present invention.
In general terms: ATP-based viability assays read luminescence as a measure of living cells.

Where [6] appears, read: fluorescein-labeled BH3 peptide 15 nM, purified BCL-2 protein 30 nM, 3 hours incubation at room temperature.

Usually IC50 stands for the concentration at which inhibition is half-maximal. For orientation: Ki means a measure of affinity in units of concentration, obtained from inhibition or displacement. By TGI is commonly meant the reduction of tumour growth relative to the control group. By EC50 is commonly meant the concentration needed to bring the measured effect to its halfway point.

Counter-ions that a name gives are not always drawn. Like-named read-outs stand apart in the source and are kept apart here.

Chain of BCL-2 (P10415 whole entry): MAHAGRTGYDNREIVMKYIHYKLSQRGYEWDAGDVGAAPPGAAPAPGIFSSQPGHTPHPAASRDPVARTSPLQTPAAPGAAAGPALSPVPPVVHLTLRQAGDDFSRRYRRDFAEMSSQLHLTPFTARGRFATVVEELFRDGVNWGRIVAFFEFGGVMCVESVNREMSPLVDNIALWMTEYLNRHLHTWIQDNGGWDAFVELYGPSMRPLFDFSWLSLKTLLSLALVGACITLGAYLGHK
Chain of Mcl-1 (Q07820 whole entry): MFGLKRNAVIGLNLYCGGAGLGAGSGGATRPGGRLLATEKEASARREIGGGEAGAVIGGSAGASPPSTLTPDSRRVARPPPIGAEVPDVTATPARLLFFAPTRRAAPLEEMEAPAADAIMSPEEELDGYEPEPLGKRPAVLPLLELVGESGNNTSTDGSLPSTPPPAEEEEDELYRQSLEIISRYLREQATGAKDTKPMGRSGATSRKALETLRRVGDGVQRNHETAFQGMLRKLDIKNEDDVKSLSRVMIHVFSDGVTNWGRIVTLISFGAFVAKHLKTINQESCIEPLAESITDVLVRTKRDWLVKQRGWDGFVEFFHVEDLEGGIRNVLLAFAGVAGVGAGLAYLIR
Chain of Bcl-w (Q92843 whole entry): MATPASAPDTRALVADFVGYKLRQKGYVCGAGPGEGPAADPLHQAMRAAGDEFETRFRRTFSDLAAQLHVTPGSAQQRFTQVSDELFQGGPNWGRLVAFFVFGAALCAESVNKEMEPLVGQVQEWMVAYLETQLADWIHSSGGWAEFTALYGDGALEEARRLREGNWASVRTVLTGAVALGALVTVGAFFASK

As for `CN(C)CC[C@H](CSc1ccccc1)Nc1ccc(S(=O)(=O)NC(=O)c2ccc(N3CCN(Cc4ccccc4-c4ccc(Cl)cc4)CC3)cc2)cc1[N+](=O)[O-]` [ABT-737], the oral bioavailability entry in data set [1] was “not orally bioavailable”. For the same compound, the aqueous solubility entry in [2] is “low aqueous solubility”.

Consider `CC1(C)CCC(c2ccc(Cl)cc2)=C(CN2CCN(c3ccc(C(=O)NS(=O)(=O)c4ccc(N[C@H](CCN5CCOCC5)CSc5ccccc5)c(S(=O)(=O)C(F)(F)F)c4)cc3)CC2)C1` [ABT-263], for which the “tumor response, small-cell lung cancer xenograft models” value in data set [3] was “complete tumor regressions”. Also, the IC50 in the data set with SCLC H146 cell line was 110 nM. Further, the Ki at Bcl-w was at most 1 nM. Besides, the “tumor response, acute lymphoblastic leukemia xenograft models” value in data set [4] is reported as “complete tumor regressions”. In addition, in the data set with circulating platelets, the “number of circulating platelets” value was “rapid, concentration-dependent decrease”. Moreover, in the data set with H345 xenograft, the TGI is on record as 80% and the “treated tumors indicating at least a 50% reduction in tumor volume” value is on record as 20%.

As to `CC1(C)CCC(CN2CCN(c3ccc(C(=O)NS(=O)(=O)c4ccc(NCC5CCOCC5)c([N+](=O)[O-])c4)c(Oc4cnc5[nH]ccc5c4)c3)CC2)=C(c2ccc(Cl)cc2)C1` [ABT-199], in the data set on RS4; 11 xenografts, the “maximal tumor growth inhibition” value is given as 95% and the tumor growth delay was 152%. Besides, at Mcl-1, the “activity to Mcl-1” value is “no activity”. In addition, the EC50 in the data set on CLL is 3 nM. In addition, the EC50 in the data set on RS4;11 cells is 8 nM.

Turning to `Cc1ncsc1-c1ccc(CNC(=O)[C@@H]2C[C@@H](O)CN2C(=O)[C@@H](NC(=O)CCOCCOCCOCCOCCNc2ccc(S(=O)(=O)NC(=O)c3ccc(N4CCN(CC5=C(c6ccc(Cl)cc6)CC(C)(C)CC5)CC4)cc3N3CCCOc4nc5[nH]ccc5cc43)cc2[N+](=O)[O-])C(C)(C)C)cc1` [Example 57, (2S,4R)-1-[(2S)-2-[1-[(4-[[4-(4-[[2-(4-chlorophenyl)-4,4-dimethylcyclohex-1-en-1-yl]methyl]piperazin-1-yl)-2-[14-oxa-2,4,10-triazatricyclo[7.5.0.0^[3,7]]tetradeca-1(9),2,5,7-tetraen-10-yl]phenyl]formamidosulfonyl]-2-nitrophenyl)amino]-3,6,9,12-tetraoxapentadecan-15-amido]-3,3-dimethylbutanoyl]-4-hydroxy-N-[[4-(4-methyl-1,3-thiazol-5-yl)phenyl]methyl]pyrrolidine-2-carboxamide], the IC50 at BCL-2 (setting [6]) was determined as 0.5 nM; in [5], 68 nM.

As for `CNc1ccc2c(n1)OCCCN2c1cc(N2CCN(CC3=C(c4ccc(Cl)cc4)CC(C)(C)CC3)CC2)ccc1C(=O)NS(=O)(=O)c1ccc(NC[C@H]2COCCO2)c([N+](=O)[O-])c1` [Example 42, 4-(4-[[2-(4-chlorophenyl)-4,4-dimethylcyclohex-1-en-1-yl]methyl]piperazin-1-yl)-N-(4-[[(2S)-1,4-dioxan-2-ylmethyl]amino]-3-nitrobenzenesulfonyl)-2-[7-(methylamino)-2H,3H,4H-pyrido[2,3-b][1,4]oxazepin-1-yl]benzamide hydrochloride], the results for the 50% inhibitory concentration (IC50) (on BCL-2 (setting [6]); in data set [5]) were 4.1 nM and over 1000 nM, respectively.

For `CC1(C)CC(c2ccc(Cl)cc2)=C(CN2CCN(c3ccc(C(=O)NS(=O)(=O)c4ccc(NC[C@H]5COCCO5)c([N+](=O)[O-])c4)c(N4CCCOc5nc6[nH]ccc6cc54)c3)CC2)CO1` [Example 72, 4-(4-[[4-(4-chlorophenyl)-6,6-dimethyl-2,5-dihydropyran-3-yl]methyl]piperazin-1-yl)-N-(4-[[(2S)-1,4-dioxan-2-ylmethyl]amino]-3-nitrobenzenesulfonyl)-2-[14-oxa-2,4,10-triazatricyclo[7.5.0.0^[3,7]]tetradeca-1(9),2,5,7-tetraen-10-yl]benzamide], the values for the 50% inhibitory concentration (IC50) (on BCL-2; in data set [5]) were 0.01 nM and 0.3 nM, respectively.

Regarding `Cc1ncsc1-c1ccc(CNC(=O)[C@@H]2C[C@@H](O)CN2C(=O)[C@@H](NC(=O)CCOCCOCCOCCN2CCN(CCNc3ccc(S(=O)(=O)NC(=O)c4ccc(N5CCN(CC6=C(c7ccc(Cl)cc7)CC(C)(C)CC6)CC5)cc4N4CCCOc5nc6[nH]ccc6cc54)cc3[N+](=O)[O-])CC2)C(C)(C)C)cc1` [Example 54], the IC50 on BCL-2 (setting [6]) was determined as 0.6 nM; in [5], 49.6 nM.

With `Cn1c(=O)c2nc3[nH]ccc3cc2n1-c1cc(N2CCN(CC3=C(c4ccc(Cl)cc4)CC(C)(C)CC3)CC2)ccc1C(=O)NS(=O)(=O)c1ccc(NC[C@H]2COCCO2)c([N+](=O)[O-])c1` [Example 70, 4-(4-[[2-(4-chlorophenyl)-4,4-dimethylcyclohex-1-en-1-yl]methyl]piperazin-1-yl)-N-(4-[[(2S)-1,4-dioxan-2-ylmethyl]amino]-3-nitrobenzenesulfonyl)-2-[11-methyl-12-oxo-2,4,10,11-tetraazatricyclo[7.3.0.0^[3,7]]dodeca-1,3(7),5,8-tetraen-10-yl]benzamide], the IC50 worked out at 0.1 nM at BCL-2 (setting [6]) and 186 nM in [5].

The record behind these values is US12220419B2, “BCL-2 inhibitors” (Newave Pharmaceutical Inc., priority 2018, dated 2025).
